Assay results taken from ChEMBL document CHEMBL4706554 (Eur J Med Chem, 2020).
Calls of active or inactive are those of the source. The calls are words filed in the database; no cut-off is given here.

Columns and labels:
[1] = biological target: T1, Casein kinase II subunit alpha (Homo sapiens, UniProt P68400); assay: Displacement of fluorescent tracer from full-length human C-terminal NanoLuc-tagged CK2alpha expressed in HEK293T cells measured after 2 hrs by NanoBRET assay; type: cell-based
[2] = biological target: T2, Casein kinase II subunit alpha' (Homo sapiens, UniProt P19784); assay: Displacement of fluorescent tracer from full-length human C-terminal NanoLuc-tagged CK2alpha' expressed in HEK293T permeabilized cells measured after 2 hrs by NanoBRET assay; type: cell-based
T2 sequence (P19784 whole entry): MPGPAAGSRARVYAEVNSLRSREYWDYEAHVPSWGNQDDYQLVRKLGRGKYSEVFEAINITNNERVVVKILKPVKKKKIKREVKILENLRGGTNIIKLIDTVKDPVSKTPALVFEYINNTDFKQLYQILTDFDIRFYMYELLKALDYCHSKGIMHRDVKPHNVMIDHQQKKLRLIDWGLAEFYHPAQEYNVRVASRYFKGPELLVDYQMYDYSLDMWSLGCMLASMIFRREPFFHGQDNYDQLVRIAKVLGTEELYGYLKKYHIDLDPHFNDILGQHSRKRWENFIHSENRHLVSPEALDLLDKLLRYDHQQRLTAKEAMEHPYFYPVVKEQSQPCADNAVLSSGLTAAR

[3] = biological target: T2, Casein kinase II subunit alpha'; assay: Displacement of fluorescent tracer from full-length human C-terminal NanoLuc-tagged CK2alpha' expressed in HEK293T cells measured after 2 hrs by NanoBRET assay; type: cell-based
[4] = biological target: T1, Casein kinase II subunit alpha; assay: Displacement of fluorescent tracer from full-length human C-terminal NanoLuc-tagged CK2alpha expressed in HEK293T permeabilized cells measured after 2 hrs by NanoBRET assay; type: cell-based
SNB-75 = assay: Cytotoxicity against human SNB-75 cells assessed as cell growth inhibition at 10 uM incubated for 48 hrs by SRB assay; type: functional, cell-based
SK-OV-3 = assay: Cytotoxicity against human SK-OV-3 cells assessed as cell growth inhibition at 10 uM incubated for 48 hrs by SRB assay; type: functional, cell-based
HOP-62 = assay: Cytotoxicity against human HOP-62 cells assessed as cell growth inhibition at 10 uM incubated for 48 hrs by SRB assay; type: functional, cell-based
NCI-H460 = assay: Cytotoxicity against human NCI-H460 cells assessed as cell growth inhibition at 10 uM incubated for 48 hrs by SRB assay; type: functional, cell-based
SF-268 = assay: Cytotoxicity against human SF-268 cells assessed as cell growth inhibition at 10 uM incubated for 48 hrs by SRB assay; type: functional, cell-based
TK-10 = assay: Cytotoxicity against human TK-10 cells assessed as cell growth inhibition at 10 uM incubated for 48 hrs by SRB assay; type: functional, cell-based
A549 = assay: Cytotoxicity against human A549 cells assessed as cell growth inhibition at 10 uM incubated for 48 hrs by SRB assay; type: functional, cell-based
SN12C = assay: Cytotoxicity against human SN12C cells assessed as cell growth inhibition at 10 uM incubated for 48 hrs by SRB assay; type: functional, cell-based
OVCAR-8 = assay: Cytotoxicity against human OVCAR-8 cells assessed as cell growth inhibition at 10 uM incubated for 48 hrs by SRB assay; type: functional, cell-based
MOLT-4 = assay: Cytotoxicity against human MOLT-4 cells assessed as cell growth inhibition at 10 uM incubated for 48 hrs by SRB assay; type: functional, cell-based
SR = assay: Cytotoxicity against human SR cells assessed as cell growth inhibition at 10 uM incubated for 48 hrs by SRB assay; type: functional, cell-based
HCT-116 = assay: Cytotoxicity against human HCT-116 cells assessed as cell growth inhibition at 10 uM incubated for 48 hrs by SRB assay; type: functional, cell-based
NCI/ADR-RES = assay: Cytotoxicity against human NCI/ADR-RES cells assessed as cell growth inhibition at 10 uM incubated for 48 hrs by SRB assay; type: functional, cell-based
K562 = assay: Cytotoxicity against human K562 cells assessed as cell growth inhibition at 10 uM incubated for 48 hrs by SRB assay; type: functional, cell-based
UO-31 = assay: Cytotoxicity against human UO-31 cells assessed as cell growth inhibition at 10 uM incubated for 48 hrs by SRB assay; type: functional, cell-based
NCI-H226 = assay: Cytotoxicity against human NCI-H226 cells assessed as cell growth inhibition at 10 uM incubated for 48 hrs by SRB assay; type: functional, cell-based
UACC-62 = assay: Cytotoxicity against human UACC-62 cells assessed as cell growth inhibition at 10 uM incubated for 48 hrs by SRB assay; type: functional, cell-based
BT-549 = assay: Cytotoxicity against human BT-549 cells assessed as cell growth inhibition at 10 uM incubated for 48 hrs by SRB assay; type: functional, cell-based
HT-29 = assay: Cytotoxicity against human HT-29 cells assessed as cell growth inhibition at 10 uM incubated for 48 hrs by SRB assay; type: functional, cell-based
PC-3 = assay: Cytotoxicity against human PC-3 cells assessed as cell growth inhibition at 10 uM incubated for 48 hrs by SRB assay; type: functional, cell-based
SW-620 = assay: Cytotoxicity against human SW-620 cells assessed as cell growth inhibition at 10 uM incubated for 48 hrs by SRB assay; type: functional, cell-based
NCI-H322M = assay: Cytotoxicity against human NCI-H322M cells assessed as cell growth inhibition at 10 uM incubated for 48 hrs by SRB assay; type: functional, cell-based
[5] = biological target: Dual specificity tyrosine-phosphorylation-regulated kinase 1A (Homo sapiens) (UniProt Q13627); assay: Inhibition of wild-type human partial length DYRK1A (H129 to S509 residues) expressed in mammalian expression system at 1 uM by Kinomescan method
A498 = assay: Cytotoxicity against human A498 cells assessed as cell growth inhibition at 10 uM incubated for 48 hrs by SRB assay; type: functional, cell-based
Hs-578T = assay: Cytotoxicity against human Hs-578T cells assessed as cell growth inhibition at 10 uM incubated for 48 hrs by SRB assay; type: functional, cell-based
IGROV-1 = assay: Cytotoxicity against human IGROV-1 cells assessed as cell growth inhibition at 10 uM incubated for 48 hrs by SRB assay; type: functional, cell-based
SK-MEL-2 = assay: Cytotoxicity against human SK-MEL-2 cells assessed as cell growth inhibition at 10 uM incubated for 48 hrs by SRB assay; type: functional, cell-based
HCC 2998 = assay: Cytotoxicity against human HCC 2998 cells assessed as cell growth inhibition at 10 uM incubated for 48 hrs by SRB assay; type: functional, cell-based
LOX IMVI = assay: Cytotoxicity against human LOX IMVI cells assessed as cell growth inhibition at 10 uM incubated for 48 hrs by SRB assay; type: functional, cell-based
MDA-MB-231 = assay: Cytotoxicity against human MDA-MB-231 cells assessed as cell growth inhibition at 10 uM incubated for 48 hrs by SRB assay; type: functional, cell-based
HCT-15 = assay: Cytotoxicity against human HCT-15 cells assessed as cell growth inhibition at 10 uM incubated for 48 hrs by SRB assay; type: functional, cell-based
SF-295 = assay: Cytotoxicity against human SF-295 cells assessed as cell growth inhibition at 10 uM incubated for 48 hrs by SRB assay; type: functional, cell-based
M14 = assay: Cytotoxicity against human M14 cells assessed as cell growth inhibition at 10 uM incubated for 48 hrs by SRB assay; type: functional, cell-based
DU-145 = assay: Cytotoxicity against human DU-145 cells assessed as cell growth inhibition at 10 uM incubated for 48 hrs by SRB assay; type: functional, cell-based
T47D = assay: Cytotoxicity against human T47D cells assessed as cell growth inhibition at 10 uM incubated for 48 hrs by SRB assay; type: functional, cell-based
COLO 205 = assay: Cytotoxicity against human COLO 205 cells assessed as cell growth inhibition at 10 uM incubated for 48 hrs by SRB assay; type: functional, cell-based
MDA-MB-468 = assay: Cytotoxicity against human MDA-MB-468 cells assessed as cell growth inhibition at 10 uM incubated for 48 hrs by SRB assay; type: functional, cell-based
SK-MEL-5 = assay: Cytotoxicity against human SK-MEL-5 cells assessed as cell growth inhibition at 10 uM incubated for 48 hrs by SRB assay; type: functional, cell-based
U-251 = assay: Cytotoxicity against human U251 cells assessed as cell growth inhibition at 10 uM incubated for 48 hrs by SRB assay; type: functional, cell-based
OVCAR-4 = assay: Cytotoxicity against human OVCAR-4 cells assessed as cell growth inhibition at 10 uM incubated for 48 hrs by SRB assay; type: functional, cell-based
OVCAR-5 = assay: Cytotoxicity against human OVCAR-5 cells assessed as cell growth inhibition at 10 uM incubated for 48 hrs by SRB assay; type: functional, cell-based
MCF7 = assay: Cytotoxicity against human MCF7 cells assessed as cell growth inhibition at 10 uM incubated for 48 hrs by SRB assay; type: functional, cell-based
SF-539 = assay: Cytotoxicity against human SF-539 cells assessed as cell growth inhibition at 10 uM incubated for 48 hrs by SRB assay; type: functional, cell-based
Malme-3M = assay: Cytotoxicity against human Malme-3M cells assessed as cell growth inhibition at 10 uM incubated for 48 hrs by SRB assay; type: functional, cell-based
[6] = biological target: Homeodomain-interacting protein kinase 1 (Homo sapiens) (UniProt Q86Z02); assay: Inhibition of wild-type human partial length HIPK1 (M146 to I555 residues) expressed in mammalian expression system at 1 uM by Kinomescan method
Chain of Homeodomain-interacting protein kinase 1 (Homo sapiens) (Q86Z02 whole entry, looked up, the tested form may be a part): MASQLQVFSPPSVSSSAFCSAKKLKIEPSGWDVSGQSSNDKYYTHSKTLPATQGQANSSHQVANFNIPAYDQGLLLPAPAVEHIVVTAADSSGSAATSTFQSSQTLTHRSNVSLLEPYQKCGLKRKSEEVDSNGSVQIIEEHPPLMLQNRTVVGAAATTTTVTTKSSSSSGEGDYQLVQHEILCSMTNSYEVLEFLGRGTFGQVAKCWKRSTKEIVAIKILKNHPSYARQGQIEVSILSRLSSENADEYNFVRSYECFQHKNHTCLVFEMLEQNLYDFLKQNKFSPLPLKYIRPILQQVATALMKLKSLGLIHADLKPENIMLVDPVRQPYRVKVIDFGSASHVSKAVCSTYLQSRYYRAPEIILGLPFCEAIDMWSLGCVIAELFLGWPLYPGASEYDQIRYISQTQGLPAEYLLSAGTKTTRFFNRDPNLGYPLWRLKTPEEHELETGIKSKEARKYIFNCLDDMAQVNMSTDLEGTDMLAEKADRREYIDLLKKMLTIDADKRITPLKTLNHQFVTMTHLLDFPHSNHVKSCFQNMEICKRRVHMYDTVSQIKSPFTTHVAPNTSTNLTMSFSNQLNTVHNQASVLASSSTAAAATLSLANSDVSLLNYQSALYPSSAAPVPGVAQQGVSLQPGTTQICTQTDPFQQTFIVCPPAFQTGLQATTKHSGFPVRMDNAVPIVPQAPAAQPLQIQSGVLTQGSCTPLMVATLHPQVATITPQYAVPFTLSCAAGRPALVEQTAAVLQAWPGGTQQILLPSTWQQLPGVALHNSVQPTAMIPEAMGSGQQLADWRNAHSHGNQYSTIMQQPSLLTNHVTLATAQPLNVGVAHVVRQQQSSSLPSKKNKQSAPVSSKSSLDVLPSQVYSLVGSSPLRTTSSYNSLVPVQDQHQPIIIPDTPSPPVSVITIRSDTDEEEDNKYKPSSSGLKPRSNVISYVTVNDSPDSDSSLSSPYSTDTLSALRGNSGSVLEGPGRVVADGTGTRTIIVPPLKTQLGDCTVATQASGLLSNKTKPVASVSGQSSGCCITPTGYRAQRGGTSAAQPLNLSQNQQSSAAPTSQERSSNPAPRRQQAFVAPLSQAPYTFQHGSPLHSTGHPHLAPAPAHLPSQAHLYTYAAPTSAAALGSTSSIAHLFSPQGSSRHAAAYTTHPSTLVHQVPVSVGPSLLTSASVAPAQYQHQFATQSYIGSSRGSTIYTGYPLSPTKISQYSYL

MDA-MB-435 = assay: Cytotoxicity against human MDA-MB-435 cells assessed as cell growth inhibition at 10 uM incubated for 48 hrs by SRB assay; type: functional, cell-based
KM12 = assay: Cytotoxicity against human KM12 cells assessed as cell growth inhibition at 10 uM incubated for 48 hrs by SRB assay; type: functional, cell-based
RPMI-8226 = assay: Cytotoxicity against human RPMI-8226 cells assessed as cell growth inhibition at 10 uM incubated for 48 hrs by SRB assay; type: functional, cell-based
SK-MEL-28 = assay: Cytotoxicity against human SK-MEL-28 cells assessed as cell growth inhibition at 10 uM incubated for 48 hrs by SRB assay; type: functional, cell-based
CAKI-1 = assay: Cytotoxicity against human CAK1 cells assessed as cell growth inhibition at 10 uM incubated for 48 hrs by SRB assay; type: functional, cell-based
CCRF-CEM = assay: Cytotoxicity against human CCRF-CEM cells assessed as cell growth inhibition at 10 uM incubated for 48 hrs by SRB assay; type: functional, cell-based
NCI-H23 = assay: Cytotoxicity against human NCI-H23 cells assessed as cell growth inhibition at 10 uM incubated for 48 hrs by SRB assay; type: functional, cell-based
HOP-92 = assay: Cytotoxicity against human HOP-92 cells assessed as cell growth inhibition at 10 uM incubated for 48 hrs by SRB assay; type: functional, cell-based
RXF 393 = assay: Cytotoxicity against human RXF 393 cells assessed as cell growth inhibition at 10 uM incubated for 48 hrs by SRB assay; type: functional, cell-based
UACC-257 = assay: Cytotoxicity against human UACC-257 cells assessed as cell growth inhibition at 10 uM incubated for 48 hrs by SRB assay; type: functional, cell-based
HL-60(TB) = assay: Cytotoxicity against human HL-60(TB) cells assessed as cell growth inhibition at 10 uM incubated for 48 hrs by SRB assay; type: functional, cell-based
SNB-19 = assay: Cytotoxicity against human SNB-19 cells assessed as cell growth inhibition at 10 uM incubated for 48 hrs by SRB assay; type: functional, cell-based
ACHN = assay: Cytotoxicity against human ACHN cells assessed as cell growth inhibition at 10 uM incubated for 48 hrs by SRB assay; type: functional, cell-based
EKVX = assay: Cytotoxicity against human EKVX cells assessed as cell growth inhibition at 10 uM incubated for 48 hrs by SRB assay; type: functional, cell-based
OVCAR-3 = assay: Cytotoxicity against human OVCAR-3 cells assessed as cell growth inhibition at 10 uM incubated for 48 hrs by SRB assay; type: functional, cell-based
NCI-H522 = assay: Cytotoxicity against human NCI-H522 cells assessed as cell growth inhibition at 10 uM incubated for 48 hrs by SRB assay; type: functional, cell-based
786-0 = assay: Cytotoxicity against human 786-0 cells assessed as cell growth inhibition at 10 uM incubated for 48 hrs by SRB assay; type: functional, cell-based

T1 sequence (P68400 whole entry): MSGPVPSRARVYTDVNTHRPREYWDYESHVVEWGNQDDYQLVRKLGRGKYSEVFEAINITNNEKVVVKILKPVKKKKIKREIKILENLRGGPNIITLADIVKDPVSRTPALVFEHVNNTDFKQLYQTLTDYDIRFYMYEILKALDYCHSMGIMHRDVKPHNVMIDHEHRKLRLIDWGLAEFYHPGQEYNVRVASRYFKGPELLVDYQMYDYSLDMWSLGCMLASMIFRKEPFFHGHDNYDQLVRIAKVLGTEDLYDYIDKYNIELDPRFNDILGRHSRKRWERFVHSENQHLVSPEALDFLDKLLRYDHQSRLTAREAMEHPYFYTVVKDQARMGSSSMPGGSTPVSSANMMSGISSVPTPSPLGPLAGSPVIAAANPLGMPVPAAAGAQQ

Compound: COC(=O)c1ccc(-c2cnn3ccc(N(CCOCCO)C(=O)OC(C)(C)C)nc23)cc1O
- IC50 [1]: > 50 µM
- IC50 [2]: > 50 µM
- IC50 [3]: > 50 µM
- IC50 [4]: 7.52 µM

Compound: O=C(O)c1ccc2cc1OCCOCCNc1ccn3ncc-2c3n1
- IC50 [2]: 0.303 µM
- IC50 [4]: 0.075 µM

Compound: CC(C)(C)OC(=O)N1CCOCCOc2cc(ccc2C(=O)O)-c2cnn3ccc1nc23
- IC50 [2]: 0.771 µM

Compound: CC(C)(C)OC(=O)N(CCOCCO)c1ccn2ncc(-c3ccc(C(=O)O)c(O)c3)c2n1
- Activity (SNB-75): inactive
- Activity (SK-OV-3): inactive
- Activity (HOP-62): inactive
- Activity (NCI-H460): inactive
- Activity (SF-268): inactive
- Activity (TK-10): inactive
- Activity (A549): inactive
- Activity (SN12C): inactive
- Activity (OVCAR-8): inactive
- Activity (MOLT-4): inactive
- Activity (SR): inactive
- Activity (HCT-116): inactive
- Activity (NCI/ADR-RES): inactive
- Activity (K562): inactive
- Activity (UO-31): inactive
- Activity (NCI-H226): inactive
- Activity (UACC-62): inactive
- Activity (BT-549): inactive
- Activity (HT-29): inactive
- Activity (PC-3): inactive
- Activity (SW-620): inactive
- Activity (NCI-H322M): inactive
- inhibition [5]: inactive
- Activity (A498): inactive
- Activity (Hs-578T): inactive
- Activity (IGROV-1): inactive
- Activity (SK-MEL-2): inactive
- Activity (HCC 2998): inactive
- Activity (LOX IMVI): inactive
- Activity (MDA-MB-231): inactive
- Activity (HCT-15): inactive
- Activity (SF-295): inactive
- Activity (M14): inactive
- Activity (DU-145): inactive
- Activity (T47D): inactive
- Activity (COLO 205): inactive
- Activity (MDA-MB-468): inactive
- Activity (SK-MEL-5): inactive
- Activity (U-251): inactive
- Activity (OVCAR-4): inactive
- Activity (OVCAR-5): inactive
- Activity (MCF7): inactive
- Activity (SF-539): inactive
- Activity (Malme-3M): inactive
- inhibition [6]: inactive
- Activity (MDA-MB-435): inactive
- Activity (KM12): inactive
- Activity (RPMI-8226): inactive
- Activity (SK-MEL-28): inactive
- Activity (CAKI-1): inactive
- Activity (CCRF-CEM): inactive
- Activity (NCI-H23): inactive
- Activity (HOP-92): inactive
- Activity (RXF 393): inactive
- Activity (UACC-257): inactive
- Activity (HL-60(TB)): inactive
- Activity (SNB-19): inactive
- Activity (ACHN): inactive
- Activity (EKVX): inactive
- Activity (OVCAR-3): inactive
- Activity (NCI-H522): inactive
- Activity (786-0): inactive

Compound: COC(=O)c1ccc2cc1OCCOCCNc1ccn3ncc-2c3n1
- IC50 [1]: > 50 µM
- IC50 [2]: > 50 µM
- IC50 [3]: > 50 µM
- IC50 [4]: 13.2 µM
